Experiments:
Test in all cases: KinomeScan 96-kinase panel
Type in all cases: binding
Details in all cases: compound concentration 1000 nM
[1] = biological target: ABL1(E255K)-phosphorylated (Homo sapiens (Human), UniProt P00519, E255K)
Source text: (§1) The details of the screening technology were described in Fabian, M. A. et al, Nat., Biotechnol. 2005, 23, 329 and Karaman, M. W. et al, Nat., Biotechnol. 2008, 26, 127. From the above representative results, it can be seen that the compounds of the present invention have potent inhibitory activities on kinases including ALK, AXL, VEGFR2, PDGFR-α, PDGFR-β, c-KIT, Flt3, MEK1, MEK2, CSF1R, EPHA2, EPHA2, MKNK2, SRC, TIE2 and their mutants. Accordingly, the compounds of the present invention can be used for the treatment of diseases caused by abnormal activities of these kinases, e.g., cancer, psoriasis, hepatic cirrhosis, diabetes, diseases involving angiogenesis, eye diseases, immune system diseases, cardiovascular diseases, and so forth.

[2] = biological target: ABL1-phosphorylated (Homo sapiens (Human), UniProt P00519)
Source text: as §1

[3] = biological target: ADCK3 (Homo sapiens (Human), UniProt Q8NI60)
Source text: as §1

[4] = biological target: ALK (Homo sapiens (Human), UniProt Q9UM73)
Source text: as §1

[5] = biological target: AXL (Homo sapiens (Human), UniProt P30530)
Source text: as §1

[6] = biological target: BTK (Homo sapiens (Human), UniProt Q06187)
Source text: as §1

[7] = biological target: CDK11 (Homo sapiens (Human), UniProt Q9BWU1)
Source text: as §1

[8] = biological target: CDK3 (Homo sapiens (Human), UniProt Q00526)
Source text: as §1

[9] = biological target: CHEK1 (Homo sapiens (Human), UniProt O14757)
Source text: as §1

[10] = biological target: CSF1R (Homo sapiens (Human), UniProt P07333)
Source text: as §1

[11] = biological target: CSNK1D (Homo sapiens (Human), UniProt P48730)
Source text: as §1

[12] = biological target: EGFR (Homo sapiens (Human), UniProt P00533)
Source text: as §1

[13] = biological target: ERK1 (Homo sapiens (Human), UniProt P27361)
Source text: as §1

[14] = biological target: IGF1R (Homo sapiens (Human), UniProt P08069)
Source text: as §1

[15] = biological target: IKK-alpha (Homo sapiens (Human), UniProt O15111)
Source text: as §1

[16] = biological target: JAK3 (JH1domain-catalytic) (Homo sapiens (Human), UniProt P52333)
Source text: as §1

[17] = biological target: JNK2 (Homo sapiens (Human), UniProt P45984)
Source text: as §1

[18] = biological target: JNK3 (Homo sapiens (Human), UniProt P53779)
Source text: as §1

[19] = biological target: KIT (D816V) (Homo sapiens (Human), UniProt P10721, D816V)
Source text: as §1

[20] = biological target: KIT (Homo sapiens (Human), UniProt P10721)
Source text: as §1

[21] = biological target: MAPKAPK2 (Homo sapiens (Human), UniProt P49137)
Source text: as §1

[22] = biological target: MKNK1 (Homo sapiens (Human), UniProt Q9BUB5)
Source text: as §1

[23] = biological target: MLK1 (Homo sapiens (Human), UniProt P80192)
Source text: as §1

[24] = biological target: PAK2 (Homo sapiens (Human), UniProt Q13177)
Source text: as §1

[25] = biological target: PAK4 (Homo sapiens (Human), UniProt O96013)
Source text: as §1

[26] = biological target: PIK3C2B (Homo sapiens (Human), UniProt O00750)
Source text: as §1

[27] = biological target: PIK3CG (Homo sapiens (Human), UniProt P48736)
Source text: as §1

[28] = biological target: PKAC-alpha (Homo sapiens (Human), UniProt P17612)
Source text: as §1

[29] = biological target: PLK1 (Homo sapiens (Human), UniProt P53350)
Source text: as §1

[30] = biological target: PLK3 (Homo sapiens (Human), UniProt Q9H4B4)
Source text: as §1

[31] = biological target: PRKCE (Homo sapiens (Human), UniProt Q02156)
Source text: as §1

[32] = biological target: RAF1 (Homo sapiens (Human), UniProt P04049)
Source text: as §1

[33] = biological target: ROCK2 (Homo sapiens (Human), UniProt O75116)
Source text: as §1

[34] = biological target: SRPK3 (Homo sapiens (Human), UniProt Q9UPE1)
Source text: as §1

[35] = biological target: TSSK1B (Homo sapiens (Human), UniProt Q9BXA7)
Source text: as §1

[36] = biological target: ULK2 (Homo sapiens (Human), UniProt Q8IYT8)
Source text: as §1

[37] = biological target: YANK3 (Homo sapiens (Human), UniProt Q86UX6)
Source text: as §1

[38] = biological target: p38-beta (Homo sapiens (Human), UniProt Q15759)
Source text: as §1

Chain of IKK-alpha (O15111 whole entry): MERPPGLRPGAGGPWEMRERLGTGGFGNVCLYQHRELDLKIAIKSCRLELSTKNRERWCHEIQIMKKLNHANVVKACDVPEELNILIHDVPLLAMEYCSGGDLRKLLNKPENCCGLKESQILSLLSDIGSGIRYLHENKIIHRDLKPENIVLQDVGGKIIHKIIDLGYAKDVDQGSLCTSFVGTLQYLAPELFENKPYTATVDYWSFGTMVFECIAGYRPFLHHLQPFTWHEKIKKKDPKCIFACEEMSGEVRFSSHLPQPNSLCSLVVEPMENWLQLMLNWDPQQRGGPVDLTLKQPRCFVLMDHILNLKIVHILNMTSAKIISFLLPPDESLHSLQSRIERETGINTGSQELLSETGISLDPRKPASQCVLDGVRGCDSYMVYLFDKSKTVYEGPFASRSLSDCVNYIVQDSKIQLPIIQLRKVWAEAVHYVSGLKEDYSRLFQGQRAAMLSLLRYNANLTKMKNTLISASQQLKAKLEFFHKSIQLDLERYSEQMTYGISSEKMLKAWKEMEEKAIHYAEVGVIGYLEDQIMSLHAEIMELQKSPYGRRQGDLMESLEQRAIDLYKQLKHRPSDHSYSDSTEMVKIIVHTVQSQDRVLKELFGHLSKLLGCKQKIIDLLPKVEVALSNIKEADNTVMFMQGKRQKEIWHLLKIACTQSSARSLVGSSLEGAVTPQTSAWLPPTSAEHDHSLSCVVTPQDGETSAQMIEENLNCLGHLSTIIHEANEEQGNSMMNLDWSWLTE
Chain of CHEK1 (O14757 whole entry): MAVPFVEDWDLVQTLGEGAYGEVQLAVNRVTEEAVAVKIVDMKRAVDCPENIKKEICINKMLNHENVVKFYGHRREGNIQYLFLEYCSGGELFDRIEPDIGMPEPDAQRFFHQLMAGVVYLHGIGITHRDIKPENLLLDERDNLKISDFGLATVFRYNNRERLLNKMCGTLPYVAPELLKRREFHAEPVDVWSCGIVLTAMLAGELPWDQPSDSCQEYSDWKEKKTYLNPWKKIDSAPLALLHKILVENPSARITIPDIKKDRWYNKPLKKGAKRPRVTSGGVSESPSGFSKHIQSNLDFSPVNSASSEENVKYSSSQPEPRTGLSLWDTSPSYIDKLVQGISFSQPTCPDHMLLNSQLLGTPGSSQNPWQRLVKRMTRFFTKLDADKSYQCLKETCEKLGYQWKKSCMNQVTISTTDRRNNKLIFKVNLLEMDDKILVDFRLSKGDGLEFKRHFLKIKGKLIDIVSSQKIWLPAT
Chain of RAF1 (P04049 whole entry): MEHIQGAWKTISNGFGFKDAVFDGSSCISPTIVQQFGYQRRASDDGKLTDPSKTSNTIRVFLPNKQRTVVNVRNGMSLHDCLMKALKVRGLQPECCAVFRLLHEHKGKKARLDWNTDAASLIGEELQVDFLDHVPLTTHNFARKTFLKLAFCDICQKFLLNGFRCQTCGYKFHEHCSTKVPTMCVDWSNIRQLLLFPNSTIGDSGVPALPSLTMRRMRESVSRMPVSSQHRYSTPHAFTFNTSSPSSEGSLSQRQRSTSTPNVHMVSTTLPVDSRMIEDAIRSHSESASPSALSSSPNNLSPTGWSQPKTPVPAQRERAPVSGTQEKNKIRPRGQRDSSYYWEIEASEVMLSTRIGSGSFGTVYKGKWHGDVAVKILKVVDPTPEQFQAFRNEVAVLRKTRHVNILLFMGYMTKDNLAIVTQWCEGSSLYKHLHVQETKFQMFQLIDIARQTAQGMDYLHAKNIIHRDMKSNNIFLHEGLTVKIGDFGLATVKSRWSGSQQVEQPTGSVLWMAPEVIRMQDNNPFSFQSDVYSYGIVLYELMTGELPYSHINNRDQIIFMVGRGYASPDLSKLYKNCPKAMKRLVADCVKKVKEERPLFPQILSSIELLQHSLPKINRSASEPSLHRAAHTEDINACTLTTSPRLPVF
Chain of SRPK3 (Q9UPE1 whole entry): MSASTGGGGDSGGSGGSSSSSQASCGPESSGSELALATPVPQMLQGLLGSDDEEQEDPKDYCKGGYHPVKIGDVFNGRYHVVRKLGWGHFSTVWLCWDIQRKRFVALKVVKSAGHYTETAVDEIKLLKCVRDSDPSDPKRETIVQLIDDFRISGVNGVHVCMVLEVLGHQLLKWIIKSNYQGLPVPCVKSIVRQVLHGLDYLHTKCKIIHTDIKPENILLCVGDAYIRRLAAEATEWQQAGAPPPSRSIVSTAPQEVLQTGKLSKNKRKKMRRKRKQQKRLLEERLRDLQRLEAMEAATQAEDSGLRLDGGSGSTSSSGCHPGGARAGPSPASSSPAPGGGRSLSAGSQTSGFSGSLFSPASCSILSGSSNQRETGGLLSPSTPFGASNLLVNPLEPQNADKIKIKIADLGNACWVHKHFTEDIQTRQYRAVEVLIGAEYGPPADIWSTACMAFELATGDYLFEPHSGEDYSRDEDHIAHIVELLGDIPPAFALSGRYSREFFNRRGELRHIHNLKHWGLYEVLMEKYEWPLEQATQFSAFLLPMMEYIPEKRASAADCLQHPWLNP
Chain of ABL1(E255K)-phosphorylated (P00519 whole entry E255K): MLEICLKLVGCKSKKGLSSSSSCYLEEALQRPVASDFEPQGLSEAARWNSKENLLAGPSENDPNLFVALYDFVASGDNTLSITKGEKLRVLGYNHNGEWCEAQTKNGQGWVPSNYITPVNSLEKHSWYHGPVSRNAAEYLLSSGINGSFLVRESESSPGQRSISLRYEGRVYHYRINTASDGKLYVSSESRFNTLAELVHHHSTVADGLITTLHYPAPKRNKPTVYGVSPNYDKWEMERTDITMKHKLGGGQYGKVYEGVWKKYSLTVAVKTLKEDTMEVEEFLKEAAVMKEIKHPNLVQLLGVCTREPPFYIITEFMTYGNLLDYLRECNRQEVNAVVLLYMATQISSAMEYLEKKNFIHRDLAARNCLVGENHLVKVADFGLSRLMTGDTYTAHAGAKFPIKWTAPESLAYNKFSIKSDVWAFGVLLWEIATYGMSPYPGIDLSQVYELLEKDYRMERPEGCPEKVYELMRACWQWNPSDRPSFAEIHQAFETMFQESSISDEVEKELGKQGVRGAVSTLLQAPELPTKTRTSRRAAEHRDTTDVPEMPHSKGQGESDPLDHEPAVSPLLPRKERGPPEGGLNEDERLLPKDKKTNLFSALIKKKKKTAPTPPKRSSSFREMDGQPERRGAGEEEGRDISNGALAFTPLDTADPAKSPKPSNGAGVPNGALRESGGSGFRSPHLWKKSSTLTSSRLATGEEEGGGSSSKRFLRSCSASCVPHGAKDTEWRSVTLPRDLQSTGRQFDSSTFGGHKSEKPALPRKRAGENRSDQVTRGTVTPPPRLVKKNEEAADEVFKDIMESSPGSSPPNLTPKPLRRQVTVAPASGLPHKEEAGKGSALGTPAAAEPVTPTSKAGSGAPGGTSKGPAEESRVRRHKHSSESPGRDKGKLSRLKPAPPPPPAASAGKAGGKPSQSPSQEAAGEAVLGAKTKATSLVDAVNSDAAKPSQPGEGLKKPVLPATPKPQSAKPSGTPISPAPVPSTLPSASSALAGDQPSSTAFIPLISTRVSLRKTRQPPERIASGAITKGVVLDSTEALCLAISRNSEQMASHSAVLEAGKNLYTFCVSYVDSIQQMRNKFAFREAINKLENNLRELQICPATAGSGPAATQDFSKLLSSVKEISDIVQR
Chain of ADCK3 (Q8NI60 163-647): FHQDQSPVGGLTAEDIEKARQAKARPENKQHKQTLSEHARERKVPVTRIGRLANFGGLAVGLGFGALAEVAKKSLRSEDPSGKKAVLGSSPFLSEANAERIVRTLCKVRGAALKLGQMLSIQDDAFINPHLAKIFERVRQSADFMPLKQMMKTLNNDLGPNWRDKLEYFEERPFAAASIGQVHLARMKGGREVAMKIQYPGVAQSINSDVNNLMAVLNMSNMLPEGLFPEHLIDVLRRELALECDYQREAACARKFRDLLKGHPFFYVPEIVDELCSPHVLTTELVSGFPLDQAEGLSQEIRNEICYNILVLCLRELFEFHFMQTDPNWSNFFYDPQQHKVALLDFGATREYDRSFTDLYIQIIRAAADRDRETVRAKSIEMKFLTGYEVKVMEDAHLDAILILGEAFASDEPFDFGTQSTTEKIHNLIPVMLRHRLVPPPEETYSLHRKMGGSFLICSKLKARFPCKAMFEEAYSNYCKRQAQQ
Chain of CSF1R (P07333 20-972): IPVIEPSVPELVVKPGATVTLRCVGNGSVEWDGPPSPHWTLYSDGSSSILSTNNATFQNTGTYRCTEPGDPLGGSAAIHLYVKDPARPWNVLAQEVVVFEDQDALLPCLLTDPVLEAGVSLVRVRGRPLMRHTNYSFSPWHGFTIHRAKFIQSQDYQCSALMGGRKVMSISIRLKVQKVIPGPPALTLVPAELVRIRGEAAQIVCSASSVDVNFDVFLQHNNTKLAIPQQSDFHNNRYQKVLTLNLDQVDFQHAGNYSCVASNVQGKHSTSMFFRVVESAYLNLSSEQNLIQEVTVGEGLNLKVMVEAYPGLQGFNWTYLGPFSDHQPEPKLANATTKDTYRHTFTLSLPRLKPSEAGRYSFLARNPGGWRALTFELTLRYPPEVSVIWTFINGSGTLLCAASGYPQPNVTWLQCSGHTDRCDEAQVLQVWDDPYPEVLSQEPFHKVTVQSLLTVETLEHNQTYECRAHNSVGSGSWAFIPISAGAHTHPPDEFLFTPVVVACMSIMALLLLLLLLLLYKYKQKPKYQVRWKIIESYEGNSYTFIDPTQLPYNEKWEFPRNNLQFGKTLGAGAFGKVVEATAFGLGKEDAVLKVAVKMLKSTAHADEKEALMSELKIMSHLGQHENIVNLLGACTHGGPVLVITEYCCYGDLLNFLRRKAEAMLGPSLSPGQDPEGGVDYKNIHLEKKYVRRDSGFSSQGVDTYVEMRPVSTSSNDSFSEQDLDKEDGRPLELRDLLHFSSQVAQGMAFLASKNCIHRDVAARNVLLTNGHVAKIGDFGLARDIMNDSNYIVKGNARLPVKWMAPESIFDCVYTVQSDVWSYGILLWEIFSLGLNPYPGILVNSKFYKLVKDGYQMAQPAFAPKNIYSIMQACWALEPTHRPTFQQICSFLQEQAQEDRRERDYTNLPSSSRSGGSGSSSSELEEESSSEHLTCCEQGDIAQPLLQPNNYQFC
Chain of ABL1-phosphorylated (P00519 whole entry): as the sequence (P00519 whole entry E255K) above, with K255E counted along it

% Ctrl@1000 nM [1]: 7.8 % Ctrl
% Ctrl@1000 nM [2]: 4.8 % Ctrl
% Ctrl@1000 nM [3]: 100 % Ctrl
% Ctrl@1000 nM [4]: 1.2 % Ctrl
% Ctrl@1000 nM [5]: 1.2 % Ctrl
% Ctrl@1000 nM [6]: 2.6 % Ctrl
% Ctrl@1000 nM [7]: 1.2 % Ctrl
% Ctrl@1000 nM [8]: 100 % Ctrl
% Ctrl@1000 nM [9]: 96 % Ctrl
% Ctrl@1000 nM [10]: 0 % Ctrl
% Ctrl@1000 nM [11]: 54 % Ctrl
% Ctrl@1000 nM [12]: 6.8 % Ctrl
% Ctrl@1000 nM [13]: 94 % Ctrl
% Ctrl@1000 nM [14]: 21 % Ctrl
% Ctrl@1000 nM [15]: 100 % Ctrl
% Ctrl@1000 nM [16]: 76 % Ctrl
% Ctrl@1000 nM [17]: 62 % Ctrl
% Ctrl@1000 nM [18]: 100 % Ctrl
% Ctrl@1000 nM [19]: 2.2 % Ctrl
% Ctrl@1000 nM [20]: 0 % Ctrl
% Ctrl@1000 nM [21]: 67 % Ctrl
% Ctrl@1000 nM [22]: 8.8 % Ctrl
% Ctrl@1000 nM [23]: 32 % Ctrl
% Ctrl@1000 nM [24]: 76 % Ctrl
% Ctrl@1000 nM [25]: 100 % Ctrl
% Ctrl@1000 nM [26]: 99 % Ctrl
% Ctrl@1000 nM [27]: 66 % Ctrl
% Ctrl@1000 nM [28]: 100 % Ctrl
% Ctrl@1000 nM [29]: 100 % Ctrl
% Ctrl@1000 nM [30]: 100 % Ctrl
% Ctrl@1000 nM [31]: 100 % Ctrl
% Ctrl@1000 nM [32]: 53 % Ctrl
% Ctrl@1000 nM [33]: 53 % Ctrl
% Ctrl@1000 nM [34]: 76 % Ctrl
% Ctrl@1000 nM [35]: 50 % Ctrl
% Ctrl@1000 nM [36]: 100 % Ctrl
% Ctrl@1000 nM [37]: 84 % Ctrl
% Ctrl@1000 nM [38]: 78 % Ctrl
Structure (SMILES): COc1cc2c(Oc3ccc(NC(=O)C4(C(=O)Nc5ccc(F)cc5)CC4)cc3F)ccnc2cc1OCCCCCC(=O)NO [Example 13, N1′-[3-fluoro-4-[[7-[6-(hydroxyamino)-6-oxohexyloxy]-6-methoxy-4-quinolyl]oxy]phenyl]-N1-(4-fluorophenyl)cyclopropane-1,1-dicarboxamide]
